Consider 13 compounds from patent publication US20230111310A1, “CARBOXYLIC ACID DERIVATIVE-SUBSTITUTED IMINO ARYL COMPOUND, PREPARATION METHOD THEREFOR, HERBICIDAL COMPOSITION AND USE THEREOF” (Qingdao Kingagroot Chemical Compound Co., Ltd., priority 2020, published 2023).

The structures appear in SMILES notation.

Assay in all cases: Weeding effect in post-emergence stage
Holding throughout (assay type): in vivo
Conditions in all cases: Dose 15 g/ha; level of fresh weight growth control rate

One test has as its system Abutilon theophrasti. In a few lines:
(§1)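 Pot-grown weeds were sprayed at the 2-3 leaf stage, 2 weeks after sowing, with compound in acetone plus Tween 80 and 1.5 liter/ha methyl oleate emulsifiable concentrate, diluted in water. Doses were 500, 250, 125, 60, 30, 15, 7.5 g/ha. Growth control was scored after 3 weeks in greenhouse; mean of three replicates.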

In another test the test system is Setaria viridis. The method in brief:
as §1

The subject of the next test is Digitaria sanguinalis. In a few lines: as §1
Another test relates to Eleusine indica. In a few lines:
as §1

Another test concerns Alopecurus japonicus. The method in brief:
as §1

The subject of a further test is Echinochloa crusgalli. In a few lines: as §1

Regarding `CCCCCCOC(=O)[C@@H](C)O/N=C/c1cc(-n2c(=O)cc(C(F)(F)F)n(C)c2=O)c(F)cc1Cl` [204(R)], the “Weeding effect in post-emergence stage, Abutilon theophrasti” value (“Weeding effect … Abutilon theophrasti” below) in the test with Abutilon theophrasti is recorded as 5 (Level 5: growth control rate is above 85%). Moreover, in the test on Setaria viridis, the “Weeding effect in post-emergence stage, Setaria viridis” value (shortened to “Weeding effect … Setaria viridis”) is 5 (Level 5: growth control rate is above 85%). Moreover, in the test with Digitaria sanguinalis, the “Weeding effect in post-emergence stage, Digitaria sanguinalis” value (“Weeding effect … Digitaria sanguinalis” below) was 5 (Level 5: growth control rate is above 85%). For the same compound, the “Weeding effect in post-emergence stage, Eleusine indica” value (“Weeding effect … Eleusine indica” below) with Eleusine indica is listed as 5 (Level 5: growth control rate is above 85%). Also, the “Weeding effect in post-emergence stage, Alopecurus japonicus” value (from here on “Weeding effect … Alopecurus japonicus”) with Alopecurus japonicus is 5 (Level 5: growth control rate is above 85%). Also, the “Weeding effect in post-emergence stage, Echinochloa crusgalli” value (“Weeding effect … Echinochloa crusgalli” below) in the test on Echinochloa crusgalli was 5 (Level 5: growth control rate is above 85%).

Turning to `CCCCCCCOC(=O)[C@@H](C)O/N=C/c1cc(-n2c(=O)cc(C(F)(F)F)n(C)c2=O)c(F)cc1Cl` [205(R)], in the test on Abutilon theophrasti, the “Weeding effect … Abutilon theophrasti” value is on record as 5 (Level 5: growth control rate is above 85%). Besides, the “Weeding effect … Setaria viridis” value with Setaria viridis was 5 (Level 5: growth control rate is above 85%). In addition, the “Weeding effect … Digitaria sanguinalis” value in the test with Digitaria sanguinalis is given as 5 (Level 5: growth control rate is above 85%). For the same compound, the “Weeding effect … Eleusine indica” value in the test with Eleusine indica was 5 (Level 5: growth control rate is above 85%). In the test with Alopecurus japonicus, the “Weeding effect … Alopecurus japonicus” value was 5 (Level 5: growth control rate is above 85%). The “Weeding effect … Echinochloa crusgalli” value in the test with Echinochloa crusgalli was 5 (Level 5: growth control rate is above 85%).

Take `CCCCCCCCOC(=O)[C@@H](C)O/N=C/c1cc(-n2c(=O)cc(C(F)(F)F)n(C)c2=O)c(F)cc1Cl` [206(R)]: the “Weeding effect … Abutilon theophrasti” value with Abutilon theophrasti is reported as 5 (Level 5: growth control rate is above 85%). Also, the “Weeding effect … Setaria viridis” value in the test on Setaria viridis is recorded as 5 (Level 5: growth control rate is above 85%). The “Weeding effect … Digitaria sanguinalis” value in the test on Digitaria sanguinalis is given as 5 (Level 5: growth control rate is above 85%). Besides, the “Weeding effect … Eleusine indica” value in the test on Eleusine indica is listed as 5 (Level 5: growth control rate is above 85%). For the same compound, the “Weeding effect … Alopecurus japonicus” value with Alopecurus japonicus is recorded as 5 (Level 5: growth control rate is above 85%). In addition, the “Weeding effect … Echinochloa crusgalli” value in the test with Echinochloa crusgalli is given as 5 (Level 5: growth control rate is above 85%).

Take `CCCCCCC(C)OC(=O)[C@@H](C)O/N=C/c1cc(-n2c(=O)cc(C(F)(F)F)n(C)c2=O)c(F)cc1Cl` (stereo partly drawn) [207(R)]: the “Weeding effect … Abutilon theophrasti” value in the test on Abutilon theophrasti was 5 (Level 5: growth control rate is above 85%). In addition, the “Weeding effect … Setaria viridis” value in the test on Setaria viridis is 5 (Level 5: growth control rate is above 85%). Besides, in the test on Digitaria sanguinalis, the “Weeding effect … Digitaria sanguinalis” value is recorded as 5 (Level 5: growth control rate is above 85%). Besides, the “Weeding effect … Eleusine indica” value in the test with Eleusine indica is recorded as 5 (Level 5: growth control rate is above 85%). For the same compound, the “Weeding effect … Alopecurus japonicus” value in the test with Alopecurus japonicus was 5 (Level 5: growth control rate is above 85%). In the test with Echinochloa crusgalli, the “Weeding effect … Echinochloa crusgalli” value is 5 (Level 5: growth control rate is above 85%).

In the case of `C=CCCOC(=O)[C@@H](C)O/N=C/c1cc(-n2c(=O)cc(C(F)(F)F)n(C)c2=O)c(F)cc1Cl` [209(R)], in the test on Abutilon theophrasti, the “Weeding effect … Abutilon theophrasti” value is 5 (Level 5: growth control rate is above 85%). For the same compound, the “Weeding effect … Setaria viridis” value in the test with Setaria viridis is 5 (Level 5: growth control rate is above 85%). Also, the “Weeding effect … Digitaria sanguinalis” value in the test on Digitaria sanguinalis was 5 (Level 5: growth control rate is above 85%). Also, the “Weeding effect … Eleusine indica” value with Eleusine indica is reported as 5 (Level 5: growth control rate is above 85%). For the same compound, the “Weeding effect … Alopecurus japonicus” value in the test with Alopecurus japonicus was 5 (Level 5: growth control rate is above 85%). Moreover, the “Weeding effect … Echinochloa crusgalli” value in the test on Echinochloa crusgalli is reported as 5 (Level 5: growth control rate is above 85%).

Turning to `C[C@@H](O/N=C/c1cc(-n2c(=O)cc(C(F)(F)F)n(C)c2=O)c(F)cc1Cl)C(=O)OC1CCCC1` [214(R)], in the test on Abutilon theophrasti, the “Weeding effect … Abutilon theophrasti” value is given as 5 (Level 5: growth control rate is above 85%). In addition, the “Weeding effect … Setaria viridis” value with Setaria viridis was 5 (Level 5: growth control rate is above 85%). The “Weeding effect … Digitaria sanguinalis” value in the test on Digitaria sanguinalis was 5 (Level 5: growth control rate is above 85%). In addition, the “Weeding effect … Eleusine indica” value in the test with Eleusine indica is reported as 5 (Level 5: growth control rate is above 85%). Moreover, in the test on Alopecurus japonicus, the “Weeding effect … Alopecurus japonicus” value is given as 5 (Level 5: growth control rate is above 85%). Moreover, the “Weeding effect … Echinochloa crusgalli” value in the test with Echinochloa crusgalli is given as 5 (Level 5: growth control rate is above 85%).

Consider `C[C@@H](O/N=C/c1cc(-n2c(=O)cc(C(F)(F)F)n(C)c2=O)c(F)cc1Cl)C(=O)OCC(F)F` [217(R)], for which the “Weeding effect … Abutilon theophrasti” value in the test with Abutilon theophrasti is reported as 5 (Level 5: growth control rate is above 85%). Also, in the test with Setaria viridis, the “Weeding effect … Setaria viridis” value is on record as 5 (Level 5: growth control rate is above 85%). The “Weeding effect … Digitaria sanguinalis” value with Digitaria sanguinalis is listed as 5 (Level 5: growth control rate is above 85%). Besides, the “Weeding effect … Eleusine indica” value in the test on Eleusine indica is reported as 5 (Level 5: growth control rate is above 85%). The “Weeding effect … Alopecurus japonicus” value in the test on Alopecurus japonicus is 5 (Level 5: growth control rate is above 85%). The “Weeding effect … Echinochloa crusgalli” value in the test with Echinochloa crusgalli was 5 (Level 5: growth control rate is above 85%).

Take `C[C@@H](O/N=C/c1cc(-n2c(=O)cc(C(F)(F)F)n(C)c2=O)c(F)cc1Cl)C(=O)OCC(C)(F)F` [220(R)]: the “Weeding effect … Abutilon theophrasti” value in the test with Abutilon theophrasti was 5 (Level 5: growth control rate is above 85%). Besides, the “Weeding effect … Setaria viridis” value with Setaria viridis is given as 5 (Level 5: growth control rate is above 85%). Moreover, the “Weeding effect … Digitaria sanguinalis” value in the test on Digitaria sanguinalis is 5 (Level 5: growth control rate is above 85%). Also, the “Weeding effect … Eleusine indica” value with Eleusine indica is on record as 5 (Level 5: growth control rate is above 85%). In addition, in the test with Alopecurus japonicus, the “Weeding effect … Alopecurus japonicus” value is 5 (Level 5: growth control rate is above 85%). Further, in the test on Echinochloa crusgalli, the “Weeding effect … Echinochloa crusgalli” value was 5 (Level 5: growth control rate is above 85%).

On to `C[C@@H](O/N=C/c1cc(-n2c(=O)cc(C(F)(F)F)n(C)c2=O)c(F)cc1Cl)C(=O)OCCC(F)(F)F` [221(R)], for which the “Weeding effect … Abutilon theophrasti” value in the test with Abutilon theophrasti is given as 5 (Level 5: growth control rate is above 85%). Further, the “Weeding effect … Setaria viridis” value in the test on Setaria viridis was 5 (Level 5: growth control rate is above 85%). In addition, the “Weeding effect … Digitaria sanguinalis” value in the test on Digitaria sanguinalis is recorded as 5 (Level 5: growth control rate is above 85%). For the same compound, the “Weeding effect … Eleusine indica” value with Eleusine indica is 5 (Level 5: growth control rate is above 85%). For the same compound, in the test with Alopecurus japonicus, the “Weeding effect … Alopecurus japonicus” value was 5 (Level 5: growth control rate is above 85%). In the test on Echinochloa crusgalli, the “Weeding effect … Echinochloa crusgalli” value is on record as 5 (Level 5: growth control rate is above 85%).

As for `C[C@@H](O/N=C/c1cc(-n2c(=O)cc(C(F)(F)F)n(C)c2=O)c(F)cc1Cl)C(=O)OC/C=C/Cl` [225(R)], the “Weeding effect … Abutilon theophrasti” value with Abutilon theophrasti is listed as 5 (Level 5: growth control rate is above 85%). Further, in the test with Setaria viridis, the “Weeding effect … Setaria viridis” value was 5 (Level 5: growth control rate is above 85%). Further, in the test on Digitaria sanguinalis, the “Weeding effect … Digitaria sanguinalis” value was 5 (Level 5: growth control rate is above 85%). Moreover, the “Weeding effect … Eleusine indica” value in the test with Eleusine indica is 5 (Level 5: growth control rate is above 85%). For the same compound, the “Weeding effect … Alopecurus japonicus” value with Alopecurus japonicus is on record as 5 (Level 5: growth control rate is above 85%). Also, in the test on Echinochloa crusgalli, the “Weeding effect … Echinochloa crusgalli” value is recorded as 5 (Level 5: growth control rate is above 85%).

Take `C[C@@H](O/N=C/c1cc(-n2c(=O)cc(C(F)(F)F)n(C)c2=O)c(F)cc1Cl)C(=O)OCC#N` [226(R)]: in the test with Abutilon theophrasti, the “Weeding effect … Abutilon theophrasti” value is 5 (Level 5: growth control rate is above 85%). Moreover, the “Weeding effect … Setaria viridis” value with Setaria viridis is 5 (Level 5: growth control rate is above 85%). Also, in the test with Digitaria sanguinalis, the “Weeding effect … Digitaria sanguinalis” value is recorded as 5 (Level 5: growth control rate is above 85%). Besides, in the test with Eleusine indica, the “Weeding effect … Eleusine indica” value was 5 (Level 5: growth control rate is above 85%). The “Weeding effect … Alopecurus japonicus” value with Alopecurus japonicus was 5 (Level 5: growth control rate is above 85%). For the same compound, the “Weeding effect … Echinochloa crusgalli” value with Echinochloa crusgalli is listed as 5 (Level 5: growth control rate is above 85%).

Regarding `C[C@@H](O/N=C/c1cc(-n2c(=O)cc(C(F)(F)F)n(C)c2=O)c(F)cc1Cl)C(=O)OCCC#N` [227(R)], the “Weeding effect … Abutilon theophrasti” value in the test on Abutilon theophrasti was 5 (Level 5: growth control rate is above 85%). Also, the “Weeding effect … Setaria viridis” value in the test with Setaria viridis is given as 5 (Level 5: growth control rate is above 85%). For the same compound, the “Weeding effect … Digitaria sanguinalis” value in the test with Digitaria sanguinalis is 5 (Level 5: growth control rate is above 85%). In addition, the “Weeding effect … Eleusine indica” value with Eleusine indica is recorded as 5 (Level 5: growth control rate is above 85%). Further, the “Weeding effect … Alopecurus japonicus” value in the test with Alopecurus japonicus is recorded as 5 (Level 5: growth control rate is above 85%). The “Weeding effect … Echinochloa crusgalli” value in the test with Echinochloa crusgalli is 5 (Level 5: growth control rate is above 85%).

Consider `C[C@@H](O/N=C/c1cc(-n2c(=O)cc(C(F)(F)F)n(C)c2=O)c(F)cc1Cl)C(=O)OCCO` [228(R)], for which the “Weeding effect … Abutilon theophrasti” value in the test on Abutilon theophrasti is recorded as 5 (Level 5: growth control rate is above 85%). In addition, in the test with Setaria viridis, the “Weeding effect … Setaria viridis” value is listed as 5 (Level 5: growth control rate is above 85%). The “Weeding effect … Digitaria sanguinalis” value in the test on Digitaria sanguinalis is on record as 5 (Level 5: growth control rate is above 85%). In addition, the “Weeding effect … Eleusine indica” value in the test with Eleusine indica is 5 (Level 5: growth control rate is above 85%). Also, in the test with Alopecurus japonicus, the “Weeding effect … Alopecurus japonicus” value was 5 (Level 5: growth control rate is above 85%). The “Weeding effect … Echinochloa crusgalli” value with Echinochloa crusgalli was 5 (Level 5: growth control rate is above 85%).
